Measured values reported in ChEMBL document CHEMBL1201862, “PubChem BioAssay data set” (2004).
Activity calls are given as the source filed them.

Tests used:
[1] = target: T1, Zinc finger protein mex-5 (Caenorhabditis elegans, UniProt Q9XUB2); test: MEX-5/TCR-2 RNA interaction inhibitors, dose response, biochemical, C. elegans, fluorescence polarization (AID 1960)
T1 sequence (Q9XUB2 whole entry): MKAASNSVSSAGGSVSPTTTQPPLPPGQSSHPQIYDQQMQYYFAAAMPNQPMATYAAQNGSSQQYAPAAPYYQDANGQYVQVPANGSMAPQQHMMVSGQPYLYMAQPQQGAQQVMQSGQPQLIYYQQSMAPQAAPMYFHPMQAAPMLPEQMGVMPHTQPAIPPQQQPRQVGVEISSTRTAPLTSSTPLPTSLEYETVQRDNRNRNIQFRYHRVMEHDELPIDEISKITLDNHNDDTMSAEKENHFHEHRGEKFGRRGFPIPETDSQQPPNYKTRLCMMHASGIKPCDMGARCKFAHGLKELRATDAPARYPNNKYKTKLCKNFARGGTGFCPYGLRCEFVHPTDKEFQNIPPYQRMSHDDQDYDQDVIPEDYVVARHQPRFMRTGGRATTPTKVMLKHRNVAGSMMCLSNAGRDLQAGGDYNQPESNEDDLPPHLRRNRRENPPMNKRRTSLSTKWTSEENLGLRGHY

[2] = target: T2, RNA-binding protein pos-1 (Caenorhabditis elegans, UniProt G5EF15); test: inhibitors of POS-1/mex-3 RNA binding, dose response, biochemical, fluorescence polarization (AID 1964);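 note: purified POS-1 fused to maltose binding protein made in E. coli; potency of compounds blocking POS-1 binding to fluorescent RNA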
T2 sequence (G5EF15 whole entry): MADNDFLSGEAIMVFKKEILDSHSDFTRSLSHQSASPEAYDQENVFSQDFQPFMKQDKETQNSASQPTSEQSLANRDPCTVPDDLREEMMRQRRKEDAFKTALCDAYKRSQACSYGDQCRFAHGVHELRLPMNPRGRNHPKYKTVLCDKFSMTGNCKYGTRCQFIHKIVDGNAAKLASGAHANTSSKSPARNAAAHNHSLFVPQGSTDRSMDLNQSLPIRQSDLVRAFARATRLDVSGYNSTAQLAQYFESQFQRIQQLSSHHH

[3] = target: Corticotropin-releasing factor receptor 2/Corticotropin-releasing factor-binding protein (Homo sapiens, UniProt Q13324+P24387); test: activators of CRF receptor 2 with binding protein – uHTS hits, confirmation (AID 602473); type: functional; settings: read-out: EC50_Mean
Cytochrome P450 2C9 = Cytochrome P450 2C9 (Homo sapiens, UniProt P11712)
Cytochrome P450 3A4 = Cytochrome P450 3A4 (Homo sapiens, UniProt P08684);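 note: CYP3A4 tested as one member of a cytochrome P450 panel screen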
Cytochrome P450 3A4, sequence (P08684 whole entry): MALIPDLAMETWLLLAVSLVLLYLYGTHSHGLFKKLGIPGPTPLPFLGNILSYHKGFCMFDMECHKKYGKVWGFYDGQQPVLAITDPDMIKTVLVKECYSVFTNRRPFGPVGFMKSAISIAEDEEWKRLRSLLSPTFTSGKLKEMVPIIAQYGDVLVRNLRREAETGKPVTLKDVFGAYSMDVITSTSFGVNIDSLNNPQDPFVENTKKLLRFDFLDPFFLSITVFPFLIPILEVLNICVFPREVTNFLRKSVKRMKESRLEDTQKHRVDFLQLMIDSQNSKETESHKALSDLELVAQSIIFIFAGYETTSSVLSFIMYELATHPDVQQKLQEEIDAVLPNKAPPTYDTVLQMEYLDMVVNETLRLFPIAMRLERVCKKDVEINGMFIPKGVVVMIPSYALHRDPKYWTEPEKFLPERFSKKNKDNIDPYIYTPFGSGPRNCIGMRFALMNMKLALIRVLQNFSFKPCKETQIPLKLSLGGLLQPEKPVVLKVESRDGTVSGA

CAAX prenyl protease 2 = CAAX prenyl protease 2 (Homo sapiens, UniProt Q9Y256); test: human Rce1 protease inhibitors, dose response, biochemical, yeast membranes, quenched-peptide fluorescence, cherry-pick (AID 588849)
[4] = Shn3 3'UTR reporter inhibitors, dose response, cell-based, Clone20 osteoblasts, firefly luciferase, cherry-picked (AID 624132); type: functional;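 note: firefly luciferase luminescence from reporter carrying the Shn3 3'UTR in osteoblasts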
[5] = control 3'UTR Renilla luciferase suppression, dose response, counter-screen for Shn3 inhibitor project, cell-based, Clone20-Shn3RL, cherry-picked (AID 624133); type: functional
A-375 [6] = test: MITF: Counter assay: A375 proliferation Measured in Cell-Based System Using Plate Reader - 2084-03_Inhibitor_Dose_DryPowder_Activity. [Related pubchem assays (depositor defined):AID488944]; type: functional; settings: Homo sapiens
[7] = inhibitors of intracellular T. cruzi replication, confirmation, NIH3T3 host cells, beta-gal luminescence (AID 2044); type: functional, cell-based;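 note: intracellular parasites grown in NIH/3T3 mouse fibroblasts as host cells; luminescent beta-galactosidase reporter signal from transgenic T. cruzi replicating inside host cells; inhibitors lower the luminescence signal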
[8] = Luminescence Cell-Based Dose Retest to Confirm Inhibitors of Cancer Stem Cells. [Related pubchem assays (depositor defined):AID2717, AID2721]; type: functional; settings: Homo sapiens
[9] = HepG2 cell cytotoxicity, dose response, cytotoxicity control for Shn3 inhibitor project, CellTiter-Glo, cherry-picked (AID 624134); type: functional, cell-based
A-375 [10] = test: A375 melanoma cell viability reduction, dose response, counter-screen for MITF modulator project, cherry-pick samples, set 2 (AID 540335); type: functional, cell-based; settings: Homo sapiens
[11] = target: T3, Microphthalmia-associated transcription factor (Homo sapiens, UniProt O75030); test: TRPM1 promoter luciferase signal decrease, dose response, MITF inhibitor project, cell-based, SK-MEL-5, cherry-picked, set 3 (AID 493073); type: functional
T3 sequence (O75030 whole entry): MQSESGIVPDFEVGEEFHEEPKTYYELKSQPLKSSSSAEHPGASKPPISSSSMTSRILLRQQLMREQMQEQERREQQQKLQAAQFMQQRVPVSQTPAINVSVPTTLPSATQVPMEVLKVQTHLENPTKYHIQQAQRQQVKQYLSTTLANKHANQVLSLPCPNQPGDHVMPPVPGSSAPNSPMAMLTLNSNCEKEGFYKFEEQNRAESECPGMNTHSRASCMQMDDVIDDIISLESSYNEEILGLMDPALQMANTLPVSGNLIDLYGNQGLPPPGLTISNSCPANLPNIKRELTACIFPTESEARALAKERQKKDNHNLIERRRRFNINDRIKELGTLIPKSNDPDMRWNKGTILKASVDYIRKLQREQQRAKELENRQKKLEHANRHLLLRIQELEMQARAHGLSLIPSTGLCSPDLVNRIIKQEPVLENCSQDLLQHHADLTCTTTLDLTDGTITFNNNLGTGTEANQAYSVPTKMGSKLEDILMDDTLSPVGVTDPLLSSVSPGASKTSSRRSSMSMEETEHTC

[12] = cytotoxicity toward NIH3T3 fibroblasts, dose response, counter-screen, cell-based, ATP luminescence, mouse fibroblasts (AID 2010); type: functional;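 note: cells exposed to compound for about 90 hours before reading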
Phospholipase D1 = Phospholipase D1 (Homo sapiens, UniProt Q13393); test: PLD1 inhibitor potency in cells, dose response (AID 602151); type: functional;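 note: cellular PLD1 assay in Calu-1 cells stimulated with PMA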
Phospholipase D2 = Phospholipase D2 (Homo sapiens, UniProt O14939); test: PLD2 inhibitor potency in cells, dose response (AID 602147); type: functional;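 note: cellular assay in HEK293 cells overexpressing GFP-tagged PLD2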
[13] = target: Calcium/calmodulin-dependent protein kinase type II subunit gamma (Homo sapiens, UniProt Q13555); type: functional
Calcium/calmodulin-dependent protein kinase type II subunit gamma, sequence (Q13555 whole entry): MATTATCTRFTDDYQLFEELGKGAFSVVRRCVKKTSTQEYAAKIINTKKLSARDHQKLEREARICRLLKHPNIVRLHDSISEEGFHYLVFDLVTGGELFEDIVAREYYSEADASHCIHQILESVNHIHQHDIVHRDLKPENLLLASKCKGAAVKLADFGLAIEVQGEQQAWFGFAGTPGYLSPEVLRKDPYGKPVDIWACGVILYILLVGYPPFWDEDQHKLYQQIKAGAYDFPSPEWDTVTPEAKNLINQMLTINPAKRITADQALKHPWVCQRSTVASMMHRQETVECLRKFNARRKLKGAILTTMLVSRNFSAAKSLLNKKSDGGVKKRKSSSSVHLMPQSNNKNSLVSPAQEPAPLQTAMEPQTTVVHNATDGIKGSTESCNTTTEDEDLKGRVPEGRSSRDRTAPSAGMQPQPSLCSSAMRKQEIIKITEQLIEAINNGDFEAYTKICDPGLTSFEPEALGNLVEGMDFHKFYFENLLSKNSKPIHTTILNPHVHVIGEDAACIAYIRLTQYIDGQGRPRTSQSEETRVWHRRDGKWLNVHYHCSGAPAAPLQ

[14] = target: Calcium/calmodulin-dependent protein kinase type II subunit beta (Homo sapiens, UniProt Q13554); type: functional
Calcium/calmodulin-dependent protein kinase type II subunit beta, sequence (Q13554 whole entry): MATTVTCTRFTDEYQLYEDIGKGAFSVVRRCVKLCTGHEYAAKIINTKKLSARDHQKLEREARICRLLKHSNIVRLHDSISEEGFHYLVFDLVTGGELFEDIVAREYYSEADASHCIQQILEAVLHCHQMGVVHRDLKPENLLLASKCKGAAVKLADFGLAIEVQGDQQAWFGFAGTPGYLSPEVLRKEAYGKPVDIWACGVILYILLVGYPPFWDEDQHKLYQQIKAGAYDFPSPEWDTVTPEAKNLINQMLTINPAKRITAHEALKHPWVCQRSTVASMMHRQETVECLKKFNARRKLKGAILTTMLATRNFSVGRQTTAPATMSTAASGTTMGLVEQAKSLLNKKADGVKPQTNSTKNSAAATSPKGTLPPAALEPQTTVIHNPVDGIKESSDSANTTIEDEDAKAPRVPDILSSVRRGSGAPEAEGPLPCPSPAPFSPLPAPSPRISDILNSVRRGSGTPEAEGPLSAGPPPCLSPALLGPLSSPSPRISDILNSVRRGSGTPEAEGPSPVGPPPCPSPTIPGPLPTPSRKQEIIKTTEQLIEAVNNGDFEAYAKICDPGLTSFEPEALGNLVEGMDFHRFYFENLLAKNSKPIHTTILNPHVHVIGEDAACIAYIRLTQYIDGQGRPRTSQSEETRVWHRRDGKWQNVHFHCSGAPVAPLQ

[15] = target: Protein kinase C delta type (Homo sapiens, UniProt Q05655); type: functional
Protein kinase C delta type, sequence (Q05655 whole entry): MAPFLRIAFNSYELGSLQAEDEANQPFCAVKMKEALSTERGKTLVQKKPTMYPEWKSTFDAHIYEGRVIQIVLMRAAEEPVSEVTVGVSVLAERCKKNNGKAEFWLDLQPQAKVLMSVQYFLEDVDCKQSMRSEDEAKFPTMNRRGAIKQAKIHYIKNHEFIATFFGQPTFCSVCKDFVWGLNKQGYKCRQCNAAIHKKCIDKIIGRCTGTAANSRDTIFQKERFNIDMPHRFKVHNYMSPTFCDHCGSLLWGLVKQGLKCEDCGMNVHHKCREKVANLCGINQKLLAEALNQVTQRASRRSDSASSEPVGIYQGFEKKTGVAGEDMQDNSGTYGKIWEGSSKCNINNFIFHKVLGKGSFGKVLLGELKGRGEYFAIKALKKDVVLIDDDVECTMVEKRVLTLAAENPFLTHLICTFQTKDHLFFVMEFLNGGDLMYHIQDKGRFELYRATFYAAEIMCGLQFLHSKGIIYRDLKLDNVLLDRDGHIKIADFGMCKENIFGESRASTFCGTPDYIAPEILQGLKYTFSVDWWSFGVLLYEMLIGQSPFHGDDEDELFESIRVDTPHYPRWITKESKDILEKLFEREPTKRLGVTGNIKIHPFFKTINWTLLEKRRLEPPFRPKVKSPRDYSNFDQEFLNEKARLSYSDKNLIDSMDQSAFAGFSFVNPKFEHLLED

Aurora kinase B = Aurora kinase B (Homo sapiens, UniProt Q96GD4); type: functional
Aurora kinase B, sequence (Q96GD4 whole entry): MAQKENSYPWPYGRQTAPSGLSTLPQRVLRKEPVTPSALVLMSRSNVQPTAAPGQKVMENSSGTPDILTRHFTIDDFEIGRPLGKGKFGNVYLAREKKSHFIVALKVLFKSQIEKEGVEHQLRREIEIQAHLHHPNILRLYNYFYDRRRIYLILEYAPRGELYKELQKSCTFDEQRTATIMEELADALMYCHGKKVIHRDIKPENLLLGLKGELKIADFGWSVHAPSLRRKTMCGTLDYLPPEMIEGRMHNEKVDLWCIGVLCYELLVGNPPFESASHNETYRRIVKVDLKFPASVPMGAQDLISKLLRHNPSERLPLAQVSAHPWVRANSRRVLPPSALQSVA

[16] = target: Cell division cycle 7-related protein kinase (Homo sapiens, UniProt O00311); type: functional;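 note: value obtained from a kinome-wide kinase panel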
Cell division cycle 7-related protein kinase, sequence (O00311 whole entry): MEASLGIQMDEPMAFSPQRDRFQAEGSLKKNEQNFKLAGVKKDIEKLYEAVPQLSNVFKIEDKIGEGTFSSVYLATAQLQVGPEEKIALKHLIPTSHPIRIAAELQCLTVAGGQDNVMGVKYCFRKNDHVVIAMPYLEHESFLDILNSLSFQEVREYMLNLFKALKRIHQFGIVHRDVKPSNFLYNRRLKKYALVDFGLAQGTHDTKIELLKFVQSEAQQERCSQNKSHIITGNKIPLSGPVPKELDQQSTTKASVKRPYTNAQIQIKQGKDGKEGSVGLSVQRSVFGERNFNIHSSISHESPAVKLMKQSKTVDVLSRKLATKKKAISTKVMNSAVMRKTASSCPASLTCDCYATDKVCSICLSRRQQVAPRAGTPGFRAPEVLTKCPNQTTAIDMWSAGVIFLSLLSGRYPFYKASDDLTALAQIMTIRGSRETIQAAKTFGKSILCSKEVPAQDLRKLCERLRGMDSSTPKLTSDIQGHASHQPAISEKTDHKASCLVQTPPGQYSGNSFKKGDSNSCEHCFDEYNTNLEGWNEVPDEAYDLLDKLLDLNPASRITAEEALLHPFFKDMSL

[17] = target: Homeodomain-interacting protein kinase 2 (Homo sapiens, UniProt Q9H2X6); type: functional;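 note: measured within a kinome-wide kinase profiling panel, HIPK2 being one panel member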
[18] = target: Glycogen synthase kinase-3 beta (Homo sapiens, UniProt P49841); type: functional;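 note: value comes from a broad kinome profiling panel, with GSK3B as the panel member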
Glycogen synthase kinase-3 beta, sequence (P49841 whole entry): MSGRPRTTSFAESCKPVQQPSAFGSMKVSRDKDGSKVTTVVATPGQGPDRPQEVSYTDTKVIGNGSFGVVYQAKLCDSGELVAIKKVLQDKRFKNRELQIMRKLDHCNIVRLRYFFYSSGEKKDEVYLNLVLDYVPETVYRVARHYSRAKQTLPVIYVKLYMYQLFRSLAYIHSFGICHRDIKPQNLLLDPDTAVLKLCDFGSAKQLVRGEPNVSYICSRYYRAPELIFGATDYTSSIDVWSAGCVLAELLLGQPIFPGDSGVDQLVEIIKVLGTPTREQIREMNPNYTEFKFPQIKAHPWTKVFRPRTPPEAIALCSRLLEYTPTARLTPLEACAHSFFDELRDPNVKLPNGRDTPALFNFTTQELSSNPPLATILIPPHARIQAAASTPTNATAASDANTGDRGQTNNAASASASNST

[19] = target: Dual specificity protein kinase CLK4 (Homo sapiens, UniProt Q9HAZ1); type: functional
Dual specificity protein kinase CLK4, sequence (Q9HAZ1 whole entry): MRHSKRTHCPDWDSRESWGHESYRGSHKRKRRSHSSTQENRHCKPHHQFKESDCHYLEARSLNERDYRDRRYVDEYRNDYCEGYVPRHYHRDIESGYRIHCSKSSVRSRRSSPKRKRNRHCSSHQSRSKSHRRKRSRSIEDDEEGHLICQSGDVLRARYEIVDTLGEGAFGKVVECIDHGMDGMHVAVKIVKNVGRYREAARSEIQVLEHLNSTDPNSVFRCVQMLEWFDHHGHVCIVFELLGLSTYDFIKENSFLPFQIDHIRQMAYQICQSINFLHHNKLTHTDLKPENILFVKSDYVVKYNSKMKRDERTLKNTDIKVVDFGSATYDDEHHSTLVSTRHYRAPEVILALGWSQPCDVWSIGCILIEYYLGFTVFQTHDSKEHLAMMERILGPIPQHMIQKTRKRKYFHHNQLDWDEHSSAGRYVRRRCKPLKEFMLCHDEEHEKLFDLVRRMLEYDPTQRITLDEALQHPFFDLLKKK

[20] = target: Interleukin-1 receptor-associated kinase 4 (Homo sapiens, UniProt Q9NWZ3); type: functional
[21] = target: cAMP-dependent protein kinase catalytic subunit alpha (Homo sapiens, UniProt P17612); type: functional
[22] = target: Mitogen-activated protein kinase kinase kinase kinase 4 (Homo sapiens, UniProt O95819); type: functional
[23] = target: Serine/threonine-protein kinase pim-1 (Homo sapiens, UniProt P11309); type: functional
Serine/threonine-protein kinase pim-1, sequence (P11309 whole entry): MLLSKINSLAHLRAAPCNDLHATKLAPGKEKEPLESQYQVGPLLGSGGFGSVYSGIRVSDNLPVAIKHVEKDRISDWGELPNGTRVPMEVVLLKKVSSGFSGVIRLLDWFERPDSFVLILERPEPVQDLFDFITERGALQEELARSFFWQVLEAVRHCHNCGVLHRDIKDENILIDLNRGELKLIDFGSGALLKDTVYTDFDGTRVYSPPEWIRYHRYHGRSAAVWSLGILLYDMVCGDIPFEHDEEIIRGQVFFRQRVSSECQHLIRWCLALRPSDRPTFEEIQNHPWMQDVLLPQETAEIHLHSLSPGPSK

[24] = target: T4, V-type proton ATPase subunit c' (Saccharomyces cerevisiae S288c, UniProt P32842); test: Dose Response with BCECF Assay for V-ATPase inhibitors that increase vacuolar pH, Powder Set 1.; type: functional; settings: read-out: EC50_MICROM
T4 sequence (P32842 whole entry): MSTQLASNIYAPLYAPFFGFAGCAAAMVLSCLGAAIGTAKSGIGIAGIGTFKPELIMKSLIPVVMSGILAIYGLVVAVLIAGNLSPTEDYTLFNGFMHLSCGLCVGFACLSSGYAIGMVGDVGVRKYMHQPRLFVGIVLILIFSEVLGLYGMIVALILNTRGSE

[25] = target: T4, V-type proton ATPase subunit c'; test: Dose Response of Small Molecules that Regulate V-ATPase Proton Transport in Yeast using pHLuorin, Powder Set1.; type: functional; settings: read-out: EC50_MICROM

SMILES: CCCCC1(C)OC(=O)C(=Cc2ccc(N(CC)CC)cc2)C(=O)O1 (stereo unspecified)
- EC50 [1]: > 300 µM (not active)
- EC50 [2]: > 300 µM (not active)
- EC50 [3]: 7.59 µM (active)
- AC50 (Cytochrome P450 2C9): inconclusive
- AC50 (Cytochrome P450 3A4): 0.126 µM (inconclusive)

SMILES: Oc1ncccc1-c1nc2ccccc2n1Cc1cccc(Cl)c1
- AC50 (CAAX prenyl protease 2): 5.23 µM (active)

SMILES: Cc1ccccc1C(=O)N1CCN(c2ccc(NC(=O)c3ccc([N+](=O)[O-])o3)cc2)CC1
- AC50 [4]: 0.864 µM (active)
- AC50 [5]: 9.76 µM (active)
- AC50 (A-375 [6]): > 35 µM (active)
- EC50 [7]: 3.14 µM (active)
- AC50 [8]: 1.8 µM (active)
- AC50 [9]: 20.5 µM (active)
- AC50 (A-375 [10]): > 35 µM (active)
- AC50 [11]: 6.2 µM (active)
- EC50 [12]: 3.84 µM (active)

SMILES: C[C@@H](CN1CCC(n2c(=O)[nH]c3ccc(F)cc32)CC1)NC(=O)c1ccc(F)cc1
- IC50 (Phospholipase D1): 0.002 µM (active)
- IC50 (Phospholipase D2): 0.3 µM (active)

SMILES: Cc1cc(C(=O)NCCOCCOCCN)ccc1-c1cccc2c(CCCOc3cccc4ccccc34)c(C(=O)O)[nH]c12
- Ki [13]: 3.98 µM (active)
- Ki [14]: 5.01 µM (active)
- Ki [15]: 2.51 µM (active)
- Ki (Aurora kinase B): 3.98 µM (active)

SMILES: CC(C)(C)Oc1cc(-c2ccncc2)cc2[nH]nc(N)c12
- Ki [16]: 0.00251 µM (active)
- Ki [17]: 0.398 µM (active)
- Ki [18]: 0.631 µM (active)
- Ki [19]: 0.0126 µM (active)
- Ki [20]: 0.251 µM (active)
- Ki [21]: 0.158 µM (active)
- Ki [22]: 0.251 µM (active)
- Ki [23]: 1.58 µM (active)

SMILES: COc1ccccc1N1CCN(C(=O)c2ccc([N+](=O)[O-])o2)CC1
- EC50 [24]: 24.3 µM (active)
- EC50 [25]: 40.5 µM (active)
